According to patent publication US12018058B2, “Compositions and methods for diagnosing and/or treating kidney injury” (Boston Medical Center Corporation, priority 2018, dated 2024):
Square brackets hold non-standard residues; d marks the D form. Peptide text beside a SMILES is read from it. βAla = NCCC(=O)O

Tests used:
[1] = test system: mice subjected to bilateral renal pedicle clamping; assay: Ischemic AKI by bilateral renal pedicle clamping (BUN, creatinine, survival); format: in vivo, C57BL/6J mice; conditions: for Renal function (serum BUN): days 1-7 post-ischemia, single i.v. dose 100 μg/g within 3 h after 28 min ischemia, versus control peptide; for Animals surviving severe ischemic AKI: single dose 0-3 hours after releasing clamps; for Animal deaths on day 1 post-AKI / Survival / Total deaths / Animal deaths on day 2 post-AKI / Animal deaths on day 3 post-AKI: n = 8; for Animal deaths on day 1 post-AKI / Animal deaths on day 2 post-AKI / Animal deaths on day 3 post-AKI: 28 min renal ischemia; for Survival: 7 d; for Total deaths: recorded for 7 d
From the text: All animals were maintained under the guidance and policies of the Boston University Animal Core facility using National Institutes of Health (NIH) and Institutional Animal Care and Use Committee guidelines. Male and female C57BL/6J mice were purchased from Jackson Laboratory (Bar Harbor, ME), and they were housed and bred at the Boston University Animal Core facility under license number AN-15024. […] Animas were handled in a manner consistent with the NIH guide for their care and use under Institutional Animal Care and Use Committee approval.
Mice were subjected to bilateral renal pedicle clamping after being anesthetized with 2,2,2-tribromoethanol. […] 13,28,29 Slight variation in the clamp time was required to achieve similar degrees of renal dysfunction in the relatively large number of animals studied. The clamp was then removed, and reperfusion was confirmed by visual inspection of the kidneys. Sham ischemia was performed by encircling each renal pedicle with a nonocclusive ligature.
For in vitro testing in primary human PTECs, peptides ([…]) were tested that replicate the Bax domain responsible for binding NPM,34 or two peptides designed to interfere with NPM function were compared with a random nonspecific sequence of the same length (control). Peptides intended to interfere with NPM function overlap key phosphorylation sites located at the NPM amino terminus (peptide 2) or carboxy terminus (peptide 3) detected by mass spectrometry. To improve cell uptake, all peptides contained a cell-penetrating sequence13. For in vivo experiments, a renal-targeting sequence (NLS) was added to enhance renal peptide uptake.35 Peptides were commercially synthesized (Biomatik, Wilmington, DE) J Am Soc Nephrol 30: ccc-ccc, 2018 Nucleophosmin in AKI 3www.jasn.org BASIC RESEARCHas follows: NPM-Bax blocking peptide: Ac-KKKRKV-(bA)-[…]-COOH (SEQ ID NO: 8); peptide 2: AC-PKKKRKV-(bA)-[…]-COOH (SEQ ID NO: 9); and peptide 3: AC-PKKKRKV-(bA)-ESFKK-QEKTPKTPKGPSSVED-IKAK-COOH (SEQ ID NO: 10). […] A total of 42 control and 56 experimental animals were studied.
Transient exposure to metabolic inhibitors replicates ischemia in vivo by activating Bax and causing cell death.13,29,36-38 Cell viability was assayed using a modified colorimetric technique (MTTassay).37 The number of surviving cells is expressed as a percentage of viable control cells detected at baseline. Serum BUN and creatinine levels were measured in tail vein blood samples for 7 days after ischemia using QuantiChrom BUN or creatinine assay kits (BioAssay Systems, Hayward, CA) according to the manufacturer's instructions.

[2] = target: T1, NPM-Bax complex (Homo sapiens, UniProt P06748); assay: NPM-Bax interaction, active Bax immunoprecipitates from PTEC lysates after ATP depletion; format: cell-based; conditions: for Bax-NPM interaction in renal epithelial cells in vitro: PTEC, 60 min ATP depletion plus 30 min recovery, FIG. 9A
T1 construct: endogenous in cells; host or cells: primary human proximal tubule epithelial cells (PTEC), ATP-depleted
T1 sequence (P06748 whole entry, one chain of several): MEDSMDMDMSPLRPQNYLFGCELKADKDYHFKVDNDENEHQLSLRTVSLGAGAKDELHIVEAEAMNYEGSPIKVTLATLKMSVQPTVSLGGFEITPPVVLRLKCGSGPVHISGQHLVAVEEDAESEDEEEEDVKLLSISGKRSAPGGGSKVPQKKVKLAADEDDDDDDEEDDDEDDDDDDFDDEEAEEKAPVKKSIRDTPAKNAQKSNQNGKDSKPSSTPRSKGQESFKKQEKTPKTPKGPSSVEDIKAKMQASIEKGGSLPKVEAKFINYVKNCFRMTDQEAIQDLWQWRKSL
Procedure: Similar amounts of Bax were detected in each lane, and input protein amounts for each sample were identical. IB, immunoblot; IP, immunoprecipitation.
Cell, tissue, and urinary proteins were harvested using PD buffer containing 40 mM Tris-HCl, pH 8.0, 500 mM NaCl, 0.1% Nonidet P-40, 6 mM EGTA, and a protease inhibitor cocktail (Set I; Calbiochem, San Diego, CA). NPM was immunoprecipitated overnight with NPM antibodies (catalog no. B0556; Sigma-Aldrich) in the presence of protein A/G-agarose beads at 4° C. NPM accumulation was measured in cytosolic samples extracted with low-dose digitonin ([…]).13 Cytosolic proteins were extracted from renal cortical tissue samples using an extraction kit (Biochain Institute, Newark, CA). Briefly, 50-100 mg of kidney cortex tissue was minced on ice and spin washed with 1 ml ice-cold wash buffer before adding […] of buffer C. The mixture was rotated at 4° C. for 20 minutes and then centrifuged at 18,0003 g at 4° C. for 20 minutes before being harvested. Protein levels were measured with the bicinchoninic acid assay (Thermo Scientific, Rockford, IL).

[3] = 28 min bilateral pedicle clamping

## CC[C@H](C)[C@H](NC(=O)[C@@H](NC(=O)[C@H](CC(C)C)NC(=O)[C@H](CO)NC(=O)[C@H](C)NC(=O)[C@@H](NC(=O)[C@H](CC(C)C)NC(=O)[C@@H](NC(=O)CNC(=O)[C@H](C)NC(=O)[C@@H](NC(=O)[C@H](Cc1ccccc1)NC(=O)[C@@H](NC(=O)[C@@H](NC(=O)[C@@H](NC(=O)[C@@H](NC(=O)CCNC(=O)[C@@H](NC(=O)[C@H](CCCCN)NC(=O)[C@H](CCCNC(=N)N)NC(=O)[C@H](CCCCN)NC(=O)[C@H](CCCCN)NC(=O)[C@H](CCCCN)NC(C)=O)C(C)C)[C@@H](C)O)C(C)C)[C@@H](C)O)[C@@H](C)CC)C(C)C)C(C)C)[C@@H](C)O)[C@@H](C)O)C(=O)N[C@@H](Cc1c[nH]c2ccccc12)C(=O)N[C@@H](CCCCN)C(=O)N[C@@H](CCCCN)C(=O)N[C@@H](CCSC)C(=O)NCC(=O)O [Peptide #1] (Ac-KKKRKV[βAla]TVTIFVAGVLTASLTIWKKMG-OH)
[1]; 22 min bilateral renal ischemia
  Animals surviving: 98%
[1]; [3]
  Animal survival: all survived
  Mean peak BUN: 100 m/dl
[1]; day 1, peptide administered 3 hours after ischemia, versus control
  Serum creatinine: significantly reduced
[1]; day 1 post-ischemia, single dose after 28 min ischemia
  Reduction of serum creatinine: ~50%
[1]; days 1-6, IV within 3 hr after 22 min bilateral renal ischemia, versus random peptide
  Improvement of BUN: 15-35%
[1]; listed as Blocking peptide
  Renal function (serum BUN): significantly improved renal function
[1]; listed as renal targeted peptide designed to interfere with Bax-NPM complex formation
  Renal function (serum BUN): significantly lower BUN levels
[1]; dose above 2 mg/animal (7 μM) or second dose within 24 hr, ischemic PTEC or mice
  Additional protection from higher or repeated dose: did not provide additional protection
[1]; dose administered at 0, 1, 2 or 3 h post-ischemia, listed as Blocking peptide
  Protection against lethal renal ischemia (animal survival): significant protection
[1]; dose administered at 0, 1, 2 or 3 h post-ischemia, listed as blocking peptide
  Protection against lethal renal ischemia (animal survival): for 7-d post-pedicle clamp release; no deaths were observed after 3 d. Significant protection
[1]; mice, administered before the insult
  Reduction of AKI severity: 40-50%
[1]; mouse, in vivo
  Improvement of kidney function (reduced both BUN and creatinine): 50%
[1]; peptide-treated animals
  Recovery of renal function: complete
  Time recovery of renal function was sustained: at least 4 weeks
[1]; same dose administered 4, 5, or 6 h after ischemia, listed as Blocking peptide
  Protection against lethal renal ischemia (animal survival): no protection was observed
[1]; same dose administered 4, 5, or 6 h after ischemia, listed as blocking peptide
  Protection against lethal renal ischemia (animal survival): 3 h post-AKI (P, 0.05); the blocking peptide was not protective if administered at 4, 5, or 6 h
[1]; 28 min ischemia, listed as Blocking peptide
  Animals surviving severe ischemic AKI: 88%
[1]; 28 min ischemia, listed as NPM inhibitor peptide
  Animals surviving severe ischemic AKI: 75%-88%
[1]; single dose 0 h post-AKI
  Animal deaths on day 1 post-AKI: 1
  Survival: 88%
  Total deaths: 1
[1]; single dose 1 h post-AKI
  Animal deaths on day 1 post-AKI: 1
  Animal deaths on day 2 post-AKI: 1
  Survival: 75%
  Total deaths: 2
[1]; single dose 2 h post-AKI
  Animal deaths on day 2 post-AKI: 1
  Survival: 88%
  Total deaths: 1
[1]; single dose 3 h post-AKI
  Animal deaths on day 2 post-AKI: 1
  Survival: 88%
  Total deaths: 1
[1]; single dose 4 h post-AKI
  Animal deaths on day 1 post-AKI: 1
  Animal deaths on day 2 post-AKI: 4
  Animal deaths on day 3 post-AKI: 3
  Survival: 0%
  Total deaths: 8
[1]; single dose 5 h post-AKI
  Animal deaths on day 1 post-AKI: 1
  Animal deaths on day 2 post-AKI: 6
  Survival: 13%
  Total deaths: 7
[1]; single dose 6 h post-AKI
  Animal deaths on day 1 post-AKI: 1
  Animal deaths on day 2 post-AKI: 4
  Animal deaths on day 3 post-AKI: 2
  Survival: 13%
  Total deaths: 7
[1]; single dose within 3 hours postischemia, 28 min ischemia, versus control
  Animal survival: dramatically improved animal survival
[2]; FIG. 9
  Decrease of NPM-Bax complex formation in vitro: about 50%
[2]
  Bax-NPM interaction in renal epithelial cells in vitro: markedly decreases
[2]; listed as Blocking peptide
  Bax-NPM interaction in renal epithelial cells in vitro: markedly reduced
[2]; listed as NPM-Bax blocking peptide (Peptide #1)
  Bax-NPM interaction in renal epithelial cells in vitro: decreases
